Results: ChEMBL document CHEMBL1938377, “Synthesis and evaluation of 17α-E-20-(heteroaryl)norpregn-1,3,5(10),20 tetraene-3,17β-diols [17α-(heteroaryl)vinyl estradiols] as ligands for the estrogen receptor-α ligand binding domain (ERα-LBD)” (Bioorg Med Chem Lett, 2012)
pEC50: −log10 of the molar value. Active and inactive are the calls of the source. The calls are words filed in the database; no cut-off is given here.

Experiments:
[1] = Agonist activity at estrogen receptor in human Ishikawa cells assessed as increase of alkaline phosphatase level after 3 days using P-nitrophenyl phosphate as substrate; format: functional, cell-based; details: 72 h
[2] = target: T1, Estrogen receptor (Homo sapiens) (UniProt P03372); test: Displacement of [3H]-estradiol from human […] LBD expressed in Escherichia coli at 1 uM to 1 pM relative to estradiol
T1 sequence (whole entry): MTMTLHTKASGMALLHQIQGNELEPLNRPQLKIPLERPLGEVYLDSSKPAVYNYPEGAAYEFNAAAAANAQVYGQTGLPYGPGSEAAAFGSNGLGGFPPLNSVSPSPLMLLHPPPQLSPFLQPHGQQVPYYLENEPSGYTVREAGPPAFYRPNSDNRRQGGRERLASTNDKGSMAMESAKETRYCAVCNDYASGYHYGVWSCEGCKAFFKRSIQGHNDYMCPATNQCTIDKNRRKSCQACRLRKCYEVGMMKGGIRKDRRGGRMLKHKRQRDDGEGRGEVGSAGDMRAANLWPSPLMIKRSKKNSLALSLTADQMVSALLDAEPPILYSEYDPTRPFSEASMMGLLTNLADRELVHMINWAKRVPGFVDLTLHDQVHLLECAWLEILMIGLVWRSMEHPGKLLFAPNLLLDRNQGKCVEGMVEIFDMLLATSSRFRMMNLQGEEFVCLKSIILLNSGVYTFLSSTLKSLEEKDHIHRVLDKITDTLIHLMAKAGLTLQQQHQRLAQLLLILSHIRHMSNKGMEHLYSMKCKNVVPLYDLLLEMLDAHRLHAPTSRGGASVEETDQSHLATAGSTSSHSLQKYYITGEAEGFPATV

[3] = Agonist activity at estrogen receptor in human Ishikawa cells assessed as increase of alkaline phosphatase level after 3 days using P-nitrophenyl phosphate as substrate relative to estradiol; format: functional
Ishikawa = test: Antagonist activity at estrogen receptor in human Ishikawa cells assessed as inhibition of estradiol-induced alkaline phosphatase level after 3 days using P-nitrophenyl phosphate as substrate; format: functional, cell-based

| RBA [2] | SMILES | pEC50 [1] | RSA [3] [%] | inhibition (Ishikawa) |
| --- | --- | --- | --- | --- |
| 2.9 | C[C@]12CC[C@@H]3c4ccc(O)cc4CC[C@H]3[C@@H]1CC[C@@]2(O)/C=C/c1ccsc1 |  | 2.5 | inactive |
| 10.3 | C[C@]12CC[C@@H]3c4ccc(O)cc4CC[C@H]3[C@@H]1CC[C@@]2(O)/C=C/c1ccccc1 |  | 9.5 | inactive |
| 0.8 | C[C@]12CC[C@@H]3c4ccc(O)cc4CC[C@H]3[C@@H]1CC[C@@]2(O)/C=C/c1cncnc1 |  | 0.4 | inactive |

Continued, compound first:

| SMILES | RBA [2] | pEC50 [1] | RSA [3] [%] | inhibition (Ishikawa) |
| --- | --- | --- | --- | --- |
| C[C@]12CC[C@@H]3c4ccc(O)cc4CC[C@H]3[C@@H]1CC[C@@H]2O [ESTRADIOL] |  | 9.05 |  |  |
| C[C@]12CC[C@@H]3c4ccc(O)cc4CC[C@H]3[C@@H]1CC[C@@]2(O)/C=C/c1ccccn1 | 1.5 |  | 0.1 | inactive |
| C[C@]12CC[C@@H]3c4ccc(O)cc4CC[C@H]3[C@@H]1CC[C@@]2(O)/C=C/c1cccs1 | 2.7 |  | 2.5 | inactive |
| C[C@]12CC[C@@H]3c4ccc(O)cc4CC[C@H]3[C@@H]1CC[C@@]2(O)/C=C/c1cccnc1 | 4 |  | 0.25 | inactive |
| C[C@]12CC[C@@H]3c4ccc(O)cc4CC[C@H]3[C@@H]1CC[C@@]2(O)/C=C/c1ccncc1 | 2.5 |  | 0.1 | inactive |
